Reference: publication PMC5798851, “The structure of FIV reverse transcriptase and its implications for non-nucleoside inhibitor resistance” (PLoS Pathogens, 2018)
Read-outs that look alike come from different tables or passages of the source.

Legend:
FIV RT (fRT) = target: T1, FIV RT (fRT) (Feline immunodeficiency virus, UniProt P16088); assay: Microscale thermophoresis (MST) NNRTI binding affinity to wild type FIV RT
T1 construct: The p66 subunit (residues 1–554) was cloned into pET22b; p51 subunit (residues 1–430) in pET28b (kan resistance, Novagen) with a thrombin-cleavable His-tag at the N-terminus; His-tag (thrombin-cleavable) (N, cleaved yes); made in house; host or cells: E. coli ArcticExpress
Protocol: (§1) RT proteins were labeled with Monolith NT protein labeling kit BLUE-NHS (NanoTemper Technologies) and eluted in microscale thermophoresis (MST) buffer (50 mm Tris-HCl, pH 7.0, 300 mM NaCl and 0.05% Tween-20).

[1] = system: mutant fRT (FIVm; R133S, K134I, A137E, G138T and R141I in FIV p51); assay: Microscale thermophoresis (MST) NNRTI binding affinity to p51-loop mutant FIV RT; parameters: species or system feline immunodeficiency virus (FIV); conditions: MST; for binding affinity to mutated fRT as compared to HIV-1 RT: FIVm versus HIV-1 RT
Excerpt: (§2) The two subunits of FIV RT (Petaluma) were subcloned into separate plasmids to facilitate site-specific mutagenesis. […] FIV RT mutant (FIVm) was generated by introducing the specific mutations into the p51 subunit using QuikChange Kit (Agilent Technologies Genomics). HIV-1 RT construct, containing p66 and protease coding regions in pT5M plasmid, was a generous gift of Prof. Stephen H. Hughes (National Cancer Institute- Frederick, MD, USA).
as §1

mutated fRT (FIVm) = target: T2, mutated fRT (FIVm) (Feline immunodeficiency virus, UniProt P16088, A293E/G294T/K290I/R289S/R297I); assay: DNA-dependent DNA polymerization activity assay, mutant FIV RT; type: biochemical, feline immunodeficiency virus (FIV); conditions: 0.15 μM RT, 30 minutes at 37°C
T2 construct: The p66 subunit (residues 1–554) was cloned into pET22b; p51 subunit (residues 1–430) in pET28b (kan resistance, Novagen) with a thrombin-cleavable His-tag at the N-terminus; His-tag (thrombin-cleavable) (N, cleaved yes); made in house; host or cells: E. coli ArcticExpress
Protocol: (§3) DNA-dependent DNA polymerization activity of RT enzymes was assessed using a DNA primer/template prepared by annealing of 70-mer ssDNA template with a complementary 25-mer ssDNA primer labeled with 6-FAM at 5’-end (Integrated DNA Technologies).
(§4) Reaction mixtures contained 100 mM Tris-HCl pH 7.5, 75 mM KCl, 0.5 mM dNTP mixture, 60 mM MgCl2, 5 mM DTT and 0.15 μM RT, 0.5 μM DNA substrate. Reactions were incubated for 30 minutes at 37°C and stopped using urea sample loading buffer and heating at 95°C for 10 minutes. Reaction products were resolved using denaturing urea polyacrylamide gel electrophoresis (S5B Fig). Percentage RT activities represent percentile of band-intensities of polymerized product divided by those of template/primer substrate.

[2] = target: T3, mutant fRT (FIVm; R133S, K134I, A137E, G138T and R141I in FIV p51) (Feline immunodeficiency virus, UniProt P16088, A293E/G294T/K290I/R289S/R297I); assay: Microscale thermophoresis (MST) NNRTI binding affinity to p51-loop mutant FIV RT
T3 construct: The p66 subunit (residues 1–554) was cloned into pET22b; p51 subunit (residues 1–430) in pET28b (kan resistance, Novagen) with a thrombin-cleavable His-tag at the N-terminus; His-tag (thrombin-cleavable) (N, cleaved yes); made in house; host or cells: E. coli ArcticExpress
Excerpt: as §2, §1

HIV-1 RT [3] = target: T4, HIV-1 RT (Human immunodeficiency virus type 1 group M subtype B, UniProt P03366); assay: biochemical; type: binding
T4 construct: HIV-1 RT construct, containing p66 and protease coding regions in pT5M plasmid; His-tag (implied by cobalt-resin purification); made in house; host or cells: E. coli BL21(DE3)

HIV-1 RT [4] = target: T4, HIV-1 RT; type: biochemical
Protocol: as §3
as §4, with “Reactions” for “Reaction mixtures contained 100 mM Tris-HCl pH 7.5, 75 mM KCl, 0.5 mM dNTP mixture, 60 mM MgCl2, 5 mM DTT and 0.15 μM RT, 0.5 μM DNA substrate. Reactions”

Row | SMILES | binding to fRT (in words) (FIV RT (fRT)) | binding affinity to mutated fRT as compared to HIV-1 RT [1] | effect on DNA polymerization activity of the mutated fRT (in words) (mutated fRT (FIVm)) | Kd (FIV RT (fRT); mean ±SD) | Kd [2] | binding affinity to mutated fRT as compared to fRT ([1]; FIVm versus wild type fRT) | Kd (HIV-1 RT [3]; MST, mean ±SD, read-out: Kd, binding to HIV-1 RT) | inhibition of HIV-1 RT DNA polymerization activity (in words) (HIV-1 RT [4]; 0.15 μM RT, 30 minutes at 37°C) | Kd (HIV-1 RT [3]) | inhibition of HIV-1 RT DNA polymerization activity (in words) (HIV-1 RT [4])
1 | O=C1Nc2ccc(Cl)cc2[C@@](C#CC2CC2)(C(F)(F)F)O1 [EFZ, Efavirenz] | fail to bind | comparable affinities | none of the three inhibitors EFZ, DLV or RPV reduced the activity |  |  |  |  |  |  | 
2 | Cc1cc(/C=C/C#N)cc(C)c1Nc1ccnc(Nc2ccc(C#N)cc2)n1 [RPV, Rilpivirine] | able to bind to fRT with comparable affinity to HIV-1 RT | comparable affinities | none of the three inhibitors EFZ, DLV or RPV reduced the activity | 796 ± 76 nM | 368 ± 60 nM | twice the affinity | 539 ± 25 nM | potently inhibiting |  | 
3 | CC(C)Nc1cccnc1N1CCN(C(=O)c2cc3cc(NS(C)(=O)=O)ccc3[nH]2)CC1 [DLV, Delavirdine] | fail to bind | twice the affinity | none of the three inhibitors EFZ, DLV or RPV reduced the activity |  | 227 ± 71 nM |  |  |  | 617 ± 100 nM | potently inhibiting
